Source: US12370258B2, “PD-1 and CTLA-4 dual inhibitor peptides” (priority 2017, dated 2025)
Ends that are not written are not given here.

Experiments:
B16-F-10 mouse melanoma = experiment: B16-F10 mouse melanoma lung metastasis model; format: in vivo, C57/BL6 mice; settings: for number of tumor nodules, difference versus no treatment saline (one-way ANOVA, p<0.05) / reduction of lung metastasis (tumor nodules) relative to no treatment saline: Table 1B study, i.v., days 1, 2, 4, 6, 8, 12
human PD-1 [1] = target: T1, human PD-1 (Homo sapiens, UniProt Q15116); experiment: Binding of PD-L1-Fc to PD-1 in a cell-free plate assay; settings: plates coated with peptide; 1 μg/mL PD-1
Procedure: The plates were washed and blocked with 1% BSA for 1 hour at room temperature. The plates were then incubated with 100 μL of 1 μg/mL PD-1 at room temperature for 1 hour. The plates were again washed and incubated with PD-L1 at room temperature for 1 hour. After another round of washes, the plates were incubated with anti-human IgG-HRP. After incubation for 1 hour and washes, the HRP was detected by incubating with TMB substrate, and the OD were read on a microplate reader.
Target sequence in this assay (Q15116 25-167 limits assumed): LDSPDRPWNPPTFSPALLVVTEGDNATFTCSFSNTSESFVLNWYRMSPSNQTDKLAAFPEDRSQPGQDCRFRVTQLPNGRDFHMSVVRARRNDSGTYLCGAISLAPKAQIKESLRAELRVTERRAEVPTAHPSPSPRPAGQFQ
Target sequence in this assay (Q9NZQ7 19-238 partner limits assumed): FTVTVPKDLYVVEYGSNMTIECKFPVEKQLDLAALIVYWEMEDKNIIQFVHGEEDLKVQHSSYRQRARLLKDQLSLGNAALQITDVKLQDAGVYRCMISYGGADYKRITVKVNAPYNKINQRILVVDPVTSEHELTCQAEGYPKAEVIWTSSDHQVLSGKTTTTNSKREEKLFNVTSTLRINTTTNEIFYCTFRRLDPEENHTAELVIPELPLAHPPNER

[2] = test system: CSP-specific, IFNγ-secreting CD8+ T cells; experiment: Immunogenicity of AdPyCSP malaria vaccine (ELISPOT); format: in vivo, Balb/c mice; settings: for increase in number of CSP-specific, IFNγ-secreting CD8 T cells relative to AdPyCSP alone: 200 μg i.p. days 0, 1, 3, 5, 7, day 12
Procedure: Balb/c mice were immunized intramuscularly with 10^10 virus particles of a recombinant replication defective adenovirus expressing the Plasmodium yoelli circumsporozoite protein (AdPyCSP).
The negative control peptide used in this study was the ovalbumin (OVA) peptide ([…], SEQ ID NO:34). At day 12 post immunization, mice were euthanized, individual spleens removed, and the number of splenic CSP-specific, IFNγ-secreting CD8^+ T cells were determined by ELISPOT assay. For the ELISPOT assay splenocytes were stimulated with the peptide […] (SEQ ID NO:35), an H-2Kd-restricted CD8^+ T cell epitope of PyCSP.
Peptides LD01, LD10da, and LD16da were tested as described above, this time using peptide LD12 (cohort 2) as the negative control. Test sample, route of treatment and treatment days are detailed in Table 2B.
At day 12 post immunization, mice were euthanized, individual spleens removed, and the number of splenic CSP-specific, IFNγ-secreting CD8^+ T cells were determined by ELISPOT assay. For the ELISPOT assay splenocytes were stimulated with the peptide […] (SEQ ID NO:35), an H-2Kd-restricted CD8^+ T cell epitope of PyCSP.

[3] = test system: CD1 mice with intra-abdominal peritonitis induced by cecal ligation and puncture (CLP); experiment: Mouse sepsis model (CLP), survival; format: in vivo; settings: 200 μg intraperitoneally at 6, 24, and 48 hours after CLP surgery
Description: CD1 mice were anesthetized, a midline abdominal incision made, the cecum was ligated and punctured, and then the incision closed.

mouse splenocytes = experiment: Anti-CD3-stimulated mouse splenocyte proliferation (CFSE); format: cell-based; settings: 1, 5, 25 μM peptide; 1 μg/mL anti-CD3; presence and absence of exogenously added PD-L1-Fc; 3 days
Procedure: PD-L1-Fc fusion protein is hypothesized to reduce anti-CD3 induced splenocyte proliferation.
Carboxyfluorescein diacetate succinimidyl ester (CFSE)-labeled mouse splenocytes (400,000 cells, 5 μM CFSE) were stimulated using 1 μg/mL anti-CD3 antibody and varying levels of PD-L1-Fc or an irrelevant control Fc. […] The CFSE dilution profiles were analyzed by flow cytometry after 3 days of treatment.

[4] = target: T2, human PD-1 expressed on the surface of Jurkat cells (Homo sapiens, UniProt Q15116); experiment: Binding of PD-L1-Fc fusion protein to human PD-1 on Jurkat cells (flow cytometry); format: cell-based; settings: varying peptide concentrations, 1 hour pre-incubation; increasing dose-response trend
T2 construct: host or cells: Jurkat
T2 sequence (Q15116 25-288): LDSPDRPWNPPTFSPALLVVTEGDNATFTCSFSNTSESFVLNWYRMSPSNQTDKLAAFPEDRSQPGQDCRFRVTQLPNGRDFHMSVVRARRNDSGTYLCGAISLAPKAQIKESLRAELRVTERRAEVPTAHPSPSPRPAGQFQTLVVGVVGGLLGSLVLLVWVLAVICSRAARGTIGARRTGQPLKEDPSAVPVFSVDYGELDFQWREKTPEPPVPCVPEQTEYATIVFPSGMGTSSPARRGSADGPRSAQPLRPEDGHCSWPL
Procedure: A human T cell line (Jurkat) stably expressing human PD-1 on its surface was purchased from Promega. This cell line was cultured using sterile techniques and maintained in log-phase growth. PD-1 protein expression levels were measured using an anti-human PD-1 antibody labeled with allophycocyanin (APC) for quality assessment.
For the experiment, 200 μL of 2.5*10^5 cells were plated in staining buffer into a microtiter plate. […] After another wash step, the cells were incubated with anti-human Fc labeled with AF647 for 30 minutes. After several washes, the mean fluorescence intensity due to PD-L1-Fc binding to PD-1 was measured by flow cytometry.

human PD-1 [5] = target: T1, human PD-1; experiment: BIACORE binding of peptide LD01 to human PD-1; settings: immobilized peptide; single analyte concentration 290 nM; 25° C.
Procedure: (§1) BIACORE® assays were carried out using a BIACORE® T-200 at 25° C. The assay and regeneration buffers contained 10 mM HEPES (pH 7.4), 150 mM NaCl, 3 mM EDTA, and 0.05% P20. The immobilization buffer was 10 mM sodium acetate, pH 5.0. The flow rate used for immobilizing the ligand was 5 μl/min. The flow rate for kinetics analysis was 30 μl/min.
(§2) Scouting. […] The un-occupied sites were blocked with 1M ethanol amine. Scouting was performed at a single analyte concentration of 290 nM to confirm yes/no binding. Flow cell 1 was kept blank and used for reference subtraction. Binding of analyte to the ligand was monitored in real time.
(§3) Full Kinetics. Based on the scouting results, full kinetics was performed at analyte concentration of 100 nM, followed by serial dilution to 50, 25, 12.5, 6.25, 3.125, 1.562 and 0 nM concentration or as indicated. KD was determined from the observed kon (on rate) and koff (off rate) or by steady state equilibrium kinetics for the interactions with fast off rate.
(§4) Chi square (χ^2) analysis was carried out between the actual Sensorgram and the sensorgram generated from the BIAnalysis software to determine the accuracy of the analysis. χ^2 value within 1-2 is considered significant (accurate) and below 1 is highly significant (highly accurate).
Target sequence in this assay (Q15116 25-288): as above

IFNγ-secreting T cells = experiment: Mouse sepsis model (CLP), splenic IFNγ-secreting T cells by ELISPOT; format: in vivo, mice; settings: treated at 6, 24, 48, 72 and 96 hours after CLP, anti-CD3 and anti-CD28 stimulation
Procedure: Twenty-four hours later, mice were euthanized, individual spleens were removed, and the number of splenic IFNγ-secreting T cells were determined by ELISPOT assay. For the ELISPOT assay splenocytes were stimulated via anti-CD3 and anti-CD28. Shown in FIG. 14 is the number of IFNγ-secreting T cells per 2×10^5 splenocytes.

human PBMCs = format: cell-based; settings: 72 hours
mouse PD-1 = target: T3, mouse PD-1 (Mus musculus, UniProt Q02242); experiment: BIACORE binding of peptide LD01 to mouse PD-1; settings: immobilized peptide; 25° C.
T3 sequence (Q02242 25-288): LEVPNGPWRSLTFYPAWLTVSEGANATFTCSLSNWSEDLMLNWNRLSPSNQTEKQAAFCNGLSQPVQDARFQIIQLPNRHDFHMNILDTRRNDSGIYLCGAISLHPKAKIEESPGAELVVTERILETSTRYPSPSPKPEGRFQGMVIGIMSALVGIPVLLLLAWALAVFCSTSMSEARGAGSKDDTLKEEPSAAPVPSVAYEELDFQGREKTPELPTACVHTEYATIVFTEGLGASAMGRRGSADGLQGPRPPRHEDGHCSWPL
Procedure: as §1, §2, §3, §4

For `CC[C@H](C)[C@H](NC(=O)[C@H](CCC(N)=O)NC(=O)CNC(=O)[C@@H](NC(=O)[C@H](CO)NC(=O)[C@H](N)[C@H](C)O)[C@@H](C)O)C(=O)N[C@@H](CO)C(=O)N[C@H](C(=O)N[C@@H](CC(C)C)C(=O)N[C@@H](CCCNC(=N)N)C(=O)N[C@H](C(=O)N[C@@H](CC(N)=O)C(=O)N[C@H](C(=O)N[C@H](C(=O)N[C@@H](C)C(=O)N1CCC[C@H]1C(=O)N[C@@H](CC(C)C)C(=O)N[C@@H](CO)C(=O)N[C@@H](CCC(N)=O)C(N)=O)[C@@H](C)O)[C@@H](C)CC)C(C)C)[C@@H](C)O` [LD01 TQ19 da/LD16 da], the “number of tumor nodules, difference versus no treatment saline (one-way ANOVA, p<0.05)” value (B16-F-10 mouse melanoma) was “Significant differences” and the “reduction of lung metastasis (tumor nodules) relative to no treatment saline” value (B16-F-10 mouse melanoma) was roughly 30%.
In the case of `CC[C@H](C)[C@H](NC(=O)[C@H](CCC(N)=O)NC(=O)CNC(=O)[C@@H](NC(=O)[C@H](CO)NC(=O)[C@@H](NC(=O)[C@H](CCCNC(=N)N)NC(=O)[C@H](CCCNC(=N)N)NC(=O)[C@@H](N)CS)[C@@H](C)O)[C@@H](C)O)C(=O)N[C@@H](CO)C(=O)N[C@H](C(=O)N[C@@H](CC(C)C)C(=O)N[C@@H](CCCNC(=N)N)C(=O)N[C@H](C(=O)N[C@@H](CC(N)=O)C(=O)N[C@H](C(=O)N[C@H](C(=O)N[C@@H](C)C(=O)N1CCC[C@H]1C(=O)N[C@@H](CC(C)C)C(=O)N[C@@H](CO)C(=O)N[C@@H](CCC(N)=O)C(N)=O)[C@@H](C)O)[C@@H](C)CC)C(C)C)[C@@H](C)O` [LD01], the “effect on binding of human PD-L1-Fc fusion protein to human PD-1 in a cell-free assay” value (human PD-1 [1]) is reported as “enhances binding”, the “immunogenicity compared with anti-PD-1 or -PD-L1 antibody (Cohort 4 and 5)” value ([2]; Table 2A study, 200 μg i.p.) is reported as “slightly above” and the “increase in number of CSP-specific, IFNγ-secreting CD8 T cells relative to AdPyCSP alone” value ([2]; Table 2A study) is reported as roughly 2 fold. For the same molecule, the “increase in number of CSP-specific, IFNγ-secreting CD8 T cells relative to AdPyCSP alone” value ([2]; Table 2B study) was roughly 1.5 fold, the survival rate [3] was 70% and the “effect on proliferation of anti-CD3 stimulated mouse splenocytes” value (mouse splenocytes) was “enhances proliferation”. For the same molecule, the “effect on binding of human PD-L1-Fc fusion protein to human PD-1-expressing Jurkat cells” value [4] was “enhances binding”, the “binding to human PD-1 (BIACORE, yes/no)” value (human PD-1 [5]) was “binds” and the “number of splenic IFNγ-secreting T cells relative to the control peptide” value (IFNγ-secreting T cells) was “increase”. The “increase in IFN-γ secretion relative to SEB alone” value (human PBMCs) was 4 fold, the “binding to mouse PD-1 (BIACORE, single concentration and kinetics)” value (mouse PD-1) was “binds” and the “reduction of lung metastasis (tumor nodules) relative to no treatment” value (B16-F-10 mouse melanoma; Table 1A study, Cohorts 3 and 4 (20 μg and 200 μg i.v., days 1, 2, 4, 6, 8, 12), day 14) was roughly 50%. For the same molecule, the “number of tumor nodules, difference versus no treatment saline (one-way ANOVA, p<0.05)” value (B16-F-10 mouse melanoma) was “Significant differences” and the “reduction of lung metastasis (tumor nodules) relative to no treatment saline” value (B16-F-10 mouse melanoma) was roughly 30%.
With `CC[C@H](C)[C@H](NC(=O)[C@H](CCC(N)=O)NC(=O)CNC(=O)[C@@H](NC(=O)[C@H](N)CO)[C@@H](C)O)C(=O)N[C@@H](CO)C(=O)N[C@H](C(=O)N[C@@H](CC(C)C)C(=O)N[C@@H](CCCNC(=N)N)C(=O)N[C@H](C(=O)N[C@@H](CC(N)=O)C(=O)N[C@H](C(=O)N[C@H](C(=O)N[C@@H](C)C(=O)N1CCC[C@H]1C(=O)N[C@@H](CC(C)C)C(=O)N[C@@H](CO)C(=O)N[C@@H](CCC(N)=O)C(N)=O)[C@@H](C)O)[C@@H](C)CC)C(C)C)[C@@H](C)O` [LD10da] the “immunogenicity compared with α-PD-1 mAb (Cohort 6)” value ([2]; Table 2B study, 200 μg i.p.) was “slightly above”.
RRTSPGQISTLRVNITAPLSQ [LD02] gave a survival rate [3] of 30%.
